According to patent US4044043A, “Derivatives of 9-oxo-13-trans-prostenoic acid esters” (American Cyanamid Company, priority 1975, dated 1977):
Converted amounts (≈) assume the structure as drawn. Like-named read-outs stand apart in the source and are kept apart here.

Experiments:
diastolic blood pressure = assay: Prostaglandin-like hypotensive activity in anesthetized rats (minimal dose for about 10 mm. decrease in diastolic blood pressure); type: in vivo, Male Wistar strain rats; conditions: Rattus norvegicus; intravenous; decrease of about 10 mm. in diastolic blood pressure
Method: This procedure is a modification of the technique described by Pike et al., Prostaglandins, Nobel Symposium 2, Stockholm, June, 1966; p, 165.
Male Wistar strain rats (Royal Hart Farms) averaging approximately 250 grams in weight were fastened to rat boards in a supine position by means of canvas vests and limb ties. The femoral area was infiltrated subcutaneously with lidocaine and the iliac artery and vein exposed and cannulated. Arterial blood pressure (systolic/diastolic) was recorded using a Statham P23 Db pressure transducer-Offner dynograph system. To obtain a stable blood pressure, the animals were anesthetized before use with pentobarbital, 30 mg./kg. of body weight intravenously, and also were given hexamethonium bitartrate, 2 mg./kg. of body weight intravenously. The test compounds were prepared by ultrasonic dispersion in a saline-Tween 80 ® vehicle. A constant intravenous dose volume of 0.5 ml. was administered and test doses ranged from 0.1 to 10.0 mg./kg. of body weight. Increasing or decreasing doses were selected depending on the dose response obtained. In Table I below are set forth the minimal doses required to produce a decrease of about 10 mm. in diastolic blood pressure for typical compounds of the present invention.

[1] = test system: Mycobacterium smegmatis ATCC 606; assay: agar-dilution streak-plate antimicrobial assay; type: cell-based; conditions: Mycolicibacterium smegmatis, ATCC606, read-out: Minimal inhibitory conc. (6)
Method: The novel compounds of the present invention are also useful as antimicrobial agents. […] In this assay, the compounds to be tested are made up to contain 2.5 mg. of test compound per milliliter of solution. Observing sterile techniques, two-fold serial dilution are made of each test solution. One milliliter of each of the original solutions and of each of the serial dilutions is then added to 9 ml. of warm sterile nutrient agar capable of supporting growth of the bacterial test cultures. A second set of agar dilutions is prepared identical to the first except that the nutrient agar is designed to support the growth of the fungal test cultures. […] The test bacteria and yeast-like fungi are prepared for use by growing in broth overnight. The spores of the filamentous fungi are harvested from mature agar slant cultures and are suspended in sterile physiological saline solution. A loopful of each of the resulting live suspensions is then, still employing sterile techniques, streaked upon the surfaces of each of the agar plates and the resulting streaked plates are then incubated. After an appropriate period of time, each of the streaks on each of the plates is inspected visually and the extent, if any, of bacterial or fungal growth is noted. The minimal inhibitory concentration (expressed in micrograms per milliliter) is defined as the concentration of test compound causing complete inhibition of growth of any particular organism. In a representative operation, and merely by way of illustration, the minimal inhibitory concentration of typical compounds of the present invention against a variety of test organisms as determined in the above-described assay are set forth in Tables II and III below: […]

[2] = test system: dl-PGE1-induced contraction of gerbil colon; assay: Inhibition of dl-PGE1-Induced Contraction of Gerbil Colon (prostaglandin antagonist action); type: cell-based, gerbils (Meriones unguiculatus); conditions: Meriones unguiculatus, 1 min
Method: The compounds of this invention are also useful as antagonists of prostaglandin action and accordingly they are potentially useful as anti-inflammatory agents, and as agents for the treatment of periodontal diseases and diarrhea. Testing for prostaglandin antagonist action is carried out in the following manner. Sections of ascending colon, approximately 20 mm. long, from mature male gerbils (Meriones unguiculatus) weighing 70-80 g. were mounted in De Jalon's solution (154 mM NaCl; 5.95 mM NAHCO3; […], 5.64 mM KC and .27 mM CaCl2 in 20 ml. tissue baths) (L and K Glass Co., Lynnhurst, N.J.). The medium was continually gassed with a mixture of 95% 02 -5% CO2 and maintained at 37° C. The tissues were suspended via silk suture threads between a glass hook at the base and a model FT .03C force displacement transducer (Grass Instruments, Quincy, Massachusetts). Contractions were recorded on a Poly-Viso ® polygraph (Sanborn Co., Cambridge, Massachusetts). After mounting, tissues were allowed to stabilize 15-20 minutes during which time adjustments were made to establish and maintain a 0.5 g. resting tension on the muscle. Thereafter, test cycles of 3-5 minutes were begun and consisted of a 1 minute exposure to the potential antagonist, if called for, followed by a 1 minute exposure to the prostaglandin agonist, a 15-30 sec. washout and a recovery period of 2-2.5 minutes. […] During the washout period, the tissue was rinsed with a measured amount equalling 8 volumes of medium. Muscle relaxation was virtually complete by the end of the washout period. During preliminary tests it was noted that a final concentration of 200 ng./ml. of a racemic mixture of synthetic prostaglandin-E1 (dl-PGE1) produced maximal muscle contraction. Following stabilization, muscles were exposed 2 to 3 times to this concentration of dl-PGE1 until a consistent response was recorded. Once maximal responses were established, test cycles with potential antagonists were commenced and were followed alternately with prostaglandin-only test cycle. […] The contraction of the muscle induced by 200 ng./ml. dl-PGE1 following exposure to a given concentration of the potential antagonist was always compared to the response of the tissue to that level of dl PGE1 in the immediately preceding cycle. Using a series of potential antagonist concentrations, an approximate ID50 (concentration at which 50% inhibition was observed) was established. The compounds were also tested against a sub-maximal prostaglandin challenge (20 ng./ml. dl-PGE1) in which case activity is reported in terms of a 50% inhibition of maximum response.

[3] = test system: bronchospasms elicited by 5-hydroxytryptamine; assay: Bronchodilator Activity (Konzett Assay) against 5-hydroxytryptamine; type: in vivo, guinea pigs; conditions: Cavia porcellus; three logarithmic cumulative intravenous doses
Method: (§1) Bronchodilator activity was determined in guinea pigs against bronchospasms elicited by intravenous injections of 5-hydroxytryptamine, histamine or acetylcholine by the Konzett procedure. [See J. Lulling, P. Lievens, F. El Sayed and J. Prignot, Arzeneimittel-Forschung, 18, 995 (1968)]. In Table IIIC which follows bronchodilator activity for representative compounds of this invention against one or more of the three spasmogenic agents is expressed as an ED50 determined from the results obtained with three logarithmic cumulative intravenous doses.

[4] = test system: bronchospasms elicited by histamine; assay: Bronchodilator Activity (Konzett Assay) against histamine; type: in vivo, guinea pigs; conditions: Cavia porcellus; three logarithmic cumulative intravenous doses
Method: as §1

[5] = test system: bronchospasms elicited by acetylcholine; assay: Bronchodilator Activity (Konzett Assay) against acetylcholine; type: in vivo, guinea pigs; conditions: Cavia porcellus; three logarithmic cumulative intravenous doses
Method: as §1

gastric acid secretion = assay: Inhibition of Gastric Acid Secretion (Pylorous-Ligated Rat), Shay rat procedure; type: in vivo, rats (male, CFE strain); conditions: 100 mg./kg. intraduodenal, read-out: % Inhibition of Control Gastric Acid Secretion
Text: The novel compounds of the present invention are also effective inhibitors of gastric acid secretion and of ulcer development in experimental animals, and thus are potentially valuable as agents for the control of gastric acid secretion and of gastric erosion and as anti-ulcer agents. Gastric acid secretion inhibitory action is usually measured by the Shay rat procedure ^(1,2) with some modifications as follows. 6 1. Shay et al., Gastroenterology, 5, 43 (1945). 6 2. Shay et al., Gastroenterology, 26, 906 (1954).
The rats (male, CFE strain) were starved for 48 hours (water was given ad libitum) to permit evacuation of stomach contents. On the morning of the experiment, under ether anesthesia, the abdominal region was shaved and a midline incision (1-1 1/2 inch) was made with a scalpel. With the help of a closed curved hemostat the duodenum was picked up. Upon getting the duodenum into view fingers were used to pull the stomach through the opening, the stomach was then gently manipulated with fingers to rid stomach of air and residual matter which were pushed through the pylorus. Two 5-inch sutures were drawn under the pyloric-duodenal puncture. A ligature, at the juncture, was formed with one of the threads. The second ligature was also formed but not tightened.
The test compound or the vehicle, usually 1 ml./100 g. body weight, were injected into the duodenum as close as possible to the first ligature. After injection the second ligature was tightened below the injection site to minimize leakage. The stomach was placed back through the opening into the abdominal cavity, the area of incision was washed with saline and the incision was closed with autoclips. (Ocasionally instead of an intraduodenal injection, animals were dosed by the oral or subcutaneous route. In the latter case, dosing was done thirty to sixty minutes before the operation).
The abdominal cavity was exposed by cutting with scissors and the esophagus close to the stomach was clamped off with a hemostat, the stomach was removed by cutting above the hemostat (the esophagus was cut) and between the two sutures. Extraneous tissue was removed, the stomach washed with saline and blotted on gauze. A slit was carefully made in the stomach which was held over a funnel and the contents were collected in a centrifuge tube. The stomach was further cut along the outside edge and turned inside out. Two ml. of water were used to wash the stomach contents into the respective centrifuge tube. The combined stomach contents and wash were then centrifuged out for 10 minutes in the International Size 2 Centrifuge (setting at 30). The supernatant was collected, volume measured and recorded, 2 drops of phenolphthalein indicator (1% in 95% ethanol) were added and the solution was titrated with 0.02N NaOH (or with 0.04N NaOH when large volumes of stomach contents were encountered) to pH 8.4 (because of usual coloring of the stomach contents, phenolphthalein was only used to permit visual indication that the end point was near) and the amount of acid present was calculated.
Compounds inducing inhibition of gastric acid secretion of 20% or more were considered active. In a representative operation, and merely by way of illustration, the results obtained with this assay with typical compounds of the present invention are given in Table IIIA.

[6] = 200 ng./ml. dl-PGE1, read-out: ID50 vs. 200 ng. of PGE1/ml.
[7] = sub-maximal challenge, 20 ng./ml. dl-PGE1, 50% inhibition of maximum response, read-out: ID50 vs. 20 ng. of PGE1/ml.

MIC [1] | IC50 [2, 6] | IC50 [2, 7] | Structure (SMILES) | minimal effective dose (diastolic blood pressure) | ED50 [3] | ED50 [4] | ED50 [5] | inhibition in vivo at 100 mg/kg (gastric acid secretion)
50 µg/mL (≈ 125 µM) | 12 µg/mL (≈ 30 µM) | – | CCCCCC/C=C/[C@@H]1CCC(=O)[C@H]1CCCCCCC(=O)Oc1cccnc1 (relative stereo) [3-pyridyl 9-oxo-13-trans-prostenoate, 3'-pyridyl 9-oxo-13-trans-prostenoate] | 0.4 to 4 mg/kg | – | – | – | –
– | 20 µg/mL (≈ 58.7 µM) | – | CCCCCC/C=C/[C@@H]1CCC(=O)[C@H]1CCCCSCC(=O)O (relative stereo) [9-oxo-3-thia-13-trans-prostenoic acid] | – | 1.56 mg/kg | 1.24 mg/kg | 2.43 mg/kg | –
– | 9 µg/mL (≈ 28.1 µM) | 0.9 µg/mL (≈ 2.81 µM) | CCCCCC/C=C/[C@@H]1CCC(=O)[C@H]1C/C=C\CCCC(=O)O (relative stereo) [9-oxo-5-cis,13-trans-prostadienoic acid, 9-oxo-5-cis-13-trans-prostadienoic acid] | – | 1.5 mg/kg | 1.42 mg/kg | 4.36 mg/kg | –
250 µg/mL (≈ 678 µM) | – | – | CCOC(=O)CCCCCC[C@H]1C(=O)CC[C@@H]1/C=C/CCCSCC (relative stereo) [ethyl 9-oxo-18-thia-13-trans-prostenoate] | 2 mg/kg | – | – | – | –
62 µg/mL (≈ 184 µM) | – | – | CCCCC/C=C/[C@H]1CCC(=O)[C@@H]1CCCCCCC(=O)OCC (relative stereo) [ethyl 9-oxo-20-nor-13-trans-prostenoate] | 0.6 mg/kg | – | – | – | –
62 µg/mL (≈ 184 µM) | – | – | CCOC(=O)CCCCCC[C@H]1C(=O)CC[C@@H]1/C=C/CCC(C)C (relative stereo) [ethyl 17-methyl-9-oxo-19,10-dinor-13-trans-rpostenoate] | 10 mg/kg | – | – | – | 21%
250 µg/mL (≈ 536 µM) | – | – | CCOC(=O)CCCCCC[C@H]1C(=O)CC[C@@H]1/C=C/CCCC(C(=O)OCC)C(=O)OCC (relative stereo) [ethyl 20,20-dicarbethoxy-9-oxo-18,19-dinor-13-trans-prostenoate] | 8 mg/kg | – | – | – | 38%
– | 15 µg/mL (≈ 42.8 µM) | 4 to 5 µg/mL (≈ 11.4 to 14.3 µM) | CCCCCC/C=C/[C@H]1CCC(=O)[C@@H]1CCCCCC(CC)C(=O)O (stereo partly drawn) [9-oxo-2-ethyl-13-trans-prostenoic acid, 2-ethyl-9-oxo-13-trans-prostenoic acid] | – | 2.91 mg/kg | 7.75 mg/kg | > 10 mg/kg | –

Further lines, the compound ahead of its results:

Structure (SMILES) | MIC [1] | IC50 [2, 6] | IC50 [2, 7] | minimal effective dose (diastolic blood pressure) | ED50 [3] | ED50 [4] | ED50 [5] | inhibition in vivo at 100 mg/kg (gastric acid secretion)
CCCCCC/C=C/[C@@H]1CCC(=NNc2ccc(C(=O)O)cc2)[C@H]1CCCCCCC(=O)O (relative stereo) [9-Oxo-13-trans-prostenoic acid p-carboxyphenylhydrazone] | – | – | – | – | 3.2 mg/kg | 0.931 mg/kg | 5.55 mg/kg | –
C=C1CC[C@@H](/C=C/CCCCCC)[C@@H]1CCCCCCC(=O)O (relative stereo) [9-methylene-13-trans-prostenoic acid, 9-Methylene-13-trans-prostenoic acid] | – | – | – | – | 14.1 mg/kg | 1.45 mg/kg | > 10 mg/kg | –
CCS(=O)(=O)CCC/C=C/[C@H]1CCC(=O)[C@@H]1CCCCCCC(=O)O (relative stereo) [9-oxo-18-dioxythia-13-trans-prostenoic acid] | – | – | – | – | > 10 mg/kg | 9.87 mg/kg | > 10 mg/kg | –
CCCCCC/C=C/[C@@H]1CC[C@@H](O)[C@H]1CCCCCCC(=O)O (relative stereo) [9α-hydroxy-13-trans-prostenoic acid] | – | – | – | – | 0.559 mg/kg | 0.268 mg/kg | 2.53 mg/kg | –
CCCCCCC=CC1CCC(O)(c2ccccc2)C1CCCCCCC(=O)O (stereo not drawn) [9-hydroxy-9-phenyl-13-trans-prostenoic acid] | – | – | – | – | 2.44 mg/kg | 5.27 mg/kg | > 10 mg/kg | –
CCCCCC/C=C/[C@H]1CC(C)C(=O)[C@@H]1CCCCCCC(=O)O (stereo partly drawn) [9-oxo-10-methyl-13-trans-prostenoic acid] | – | – | – | – | 1.84 mg/kg | 0.303 mg/kg | 73.2 mg/kg | –
CC(C)C/C=C/[C@H]1CCC(O)[C@@H]1CCCCCCC(=O)O (stereo partly drawn) [9α/β-hydroxy-16-methyl-18,19,20-trinor-13-trans-prostenoic acid] | – | – | – | – | > 10 mg/kg | 3.47 mg/kg | > 10 mg/kg | –
